Source: patent US9096556B2, “Amorphous ritonavir co-precipitated” (HETERO RESEARCH FOUNDATION, priority 2011, dated 2015)

Experiment: Solid-state stability of the amorphous form
Format: physicochemical

CC(C)c1nc(CN(C)C(=O)N[C@H](C(=O)N[C@@H](Cc2ccccc2)C[C@H](O)[C@H](Cc2ccccc2)NC(=O)OCc2cncs2)C(C)C)cs1 [(5S,8S,10S,11S)-10-Hydroxy-2-methyl-5-(1-methylethyl)-1-[2-(1-methylethyl)-4-thiazolyl]-3,6-dioxo-8,11-bis(phenylmethyl)-2,4,7,12-tetraazatridecan-13-oic acid 5-thiazolylmethyl ester]
stability of the amorphous form: unstable | time until the amorphous material changed into molten state: ≤ 30 min
